# Laboratory results published in US20250052985A1, “SYSTEM AND METHOD FOR QUANTITATIVE PHASE IMAGING FOR MULTI-PARAMETRIC SCREENING OF TUMOR THERAPY RESPONSE” (UNIVERSITY OF UTAH RESEARCH FOUNDATION, priority 2023, published 2025).
# Where “and” joins values, the source holds several entries; their conditions need not be identical. Equal values may be shown once. Read-outs that look alike come from different tables or passages of the source.
# How the values were obtained:
# [1] = tested on: BT-474 cells; assay: cells; conditions: for Max Asymptote / Min Asymptote: BT-474, 4-parameter Hill fit of mean SGR vs concentration, one line per replicate; for Hill Slope: BT-474, Hill fit; for EC50: Homo sapiens
# Procedure, shortened: (§1)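 EC50 comes from 4-parameter Hill fits of average specific growth rate (mass accumulation) versus dose; a response is called only when the fit beats a flat line by F-test at p<0.01. Growth was tracked by differential phase contrast QPI for 24 or 72 h post-equilibration, followed by CTG ATP readout.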
# [2] = tested on: MCF-7 cells; assay: cells; conditions: for Hill Slope: MCF-7, Hill fit; for EC50: Homo sapiens
# Procedure, shortened: as §1
# [3] = tested on: MDA-MB-231 cells; assay: Quantitative phase imaging (QPI) growth response, MDA-MB-231; format: cell-based; design: DoR QPI: scale not given here; ToR 20 μM: unit not given here; conditions: for Max Asymptote / Min Asymptote: MDA-MB-231, 4-parameter Hill fit of mean SGR vs concentration, one line per replicate; for EC50: Homo sapiens, MDA-MB-231, MDA-MB-231 cell line
# Procedure, shortened: as §1
# [4] = tested on: BT-474 cells; assay: CellTiter-Glo (CTG) ATP viability assay, BT-474; format: cell-based; conditions: for Min Asymptote: BT-474, Hill fit of luminescence normalized to solvent control, one line per replicate; for EC50: Homo sapiens
# Procedure, shortened: (§2)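 Cell viability was read as ATP content by CellTiter-Glo luminescence after replacing media with reagent, shaking 20 min and resting 10 min. Signal was normalized to solvent control, and a 4-parameter Hill fit to the dose response gave EC50 and depth of response.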
# [5] = tested on: MDA-MB-231 cells; assay: CellTiter-Glo (CTG) ATP viability assay, MDA-MB-231; format: cell-based; conditions: for Min Asymptote: MDA-MB-231, Hill fit of luminescence normalized to solvent control, one line per replicate; for EC50: Homo sapiens
# Procedure, shortened: as §2
# [6] = 24 h QPI, MCF-7, 4-parameter Hill fit of mean SGR vs concentration, one line per replicate
compound,measurement,setting,value
CC[C@]1(O)C[C@@H]2CN(CCc3c([nH]c4ccccc34)[C@@](C(=O)OC)(c3cc4c(cc3OC)N(C)[C@H]3[C@@](O)(C(=O)OC)[C@H](OC(C)=O)[C@]5(CC)C=CCN6CC[C@]43[C@@H]65)C2)C1 [Vinblastine],Max Asymptote,[1]; 24 h QPI,0.007582
same,Min Asymptote,[1]; 24 h QPI,−0.004812
same,Hill Slope,[1]; 24 h QPI,0.4052
same,Max Asymptote,[1]; 72 h QPI,−0.001678 and −0.002248
same,Min Asymptote,[1]; 72 h QPI,0.002895 and 0.003538
same,Hill Slope,[1]; 72 h QPI,2.4178 and 1.3815
same,growth rate and heterogeneity over time,"[1]; BT-474, 0.0016 μM",decrease in growth rate at constant heterogeneity that is greater than the control
same,growth rate and heterogeneity over time,"[1]; BT-474, 0.016 μM",decreased growth rate and increased heterogeneity
same,growth rate and heterogeneity over time,"[1]; BT-474, 0.4 μM",reduced growth rate at the same level of heterogeneity as the control
same,average growth rate over time,"[1]; BT-474, 20 μM",slowly decreases over 12-60 h of treatment
same,growth rate and heterogeneity over time,"[1]; BT-474, 20 μM","decreases, while the heterogeneity for both populations increases"
same,change of population spread (SD) of SGR,"[1]; BT-474, 20 μM, with significant decrease in mean response",no significant change to the spread
same,response of growth rate and heterogeneity to treatment,"[1]; BT-474, FIG. 5E, 22, 23",both reduced growth rate and slightly increased heterogeneity
same,growth rate and heterogeneity as concentration increases,"[1]; BT-474, FIG. 22",decrease in growth rate as concentration increases while heterogeneity remains constant
same,DoR QPI,"[1]; BT-474 cell line, depth of response, QPI",2.8
same,ToR 20 μM,"[1]; BT-474 cell line, time of response at 20 μM",4.9
same,EC50,"[1]; BT-474, 24 h, read-out: log10(EC50), 24 h QPI, BT-474, Hill fit (converted), EC50 in μM per Table 1",48.8 µM
same,EC50,"[1]; BT-474, read-out: EC50, QPI, BT-474 cell line, QPI growth rate",14.9 µM
same,Max Asymptote,[2]; [6],0.01958
same,Min Asymptote,[2]; [6],0.005796
same,Hill Slope,[2]; 24 h QPI,3.2016
same,Min Asymptote,"[2]; 72 h QPI, MCF-7, 4-parameter Hill fit of mean SGR vs concentration, one line per replicate",0.01979 and 0.02842 and 0.02817
same,Hill Slope,[2]; 72 h QPI,0.3759 and 0.3808 and 0.4308
same,EC50,"[2]; MCF7, 24 h, read-out: log10(EC50), 24 h QPI, MCF-7, Hill fit (converted), EC50 in μM per Table 1",0.00154 µM
same,EC50,"[2]; MCF7, read-out: EC50, QPI, MCF-7 cell line, QPI growth rate",0.3 µM
same,DoR QPI,"[2]; MCF-7 cell line, depth of response, QPI",0.4
same,ToR 20 μM,"[2]; MCF-7 cell line, time of response at 20 μM",−3.0
same,Max Asymptote,[3]; 24 h QPI,0.02419 and 0.02824 and 0.03124
same,Min Asymptote,[3]; 24 h QPI,0.0149 and 0.01503 and 0.01517
same,Max Asymptote,[3]; 72 h QPI,0.007654 and 0.0105 and 0.007938
same,Min Asymptote,[3]; 72 h QPI,0.03001 and 0.01871 and 0.03086
same,EC50,"[3]; EC50 of the standard deviation, read-out: EC50, SD (converted)",14900 nM
same,EC50,"[3]; QPI growth rate, read-out: EC50, QPI",400 nM
same,growth rate and heterogeneity over time,[3]; MDA-MB-231,decrease in growth rate and heterogeneity simultaneously
same,growth rate and heterogeneity over time,"[3]; MDA-MB-231, 0.4 μM",decrease in growth rate and heterogeneity simultaneously
same,growth rate and heterogeneity over time,"[3]; MDA-MB-231, 2 μM",decrease in growth rate and heterogeneity simultaneously
same,growth rate and heterogeneity over time,"[3]; MDA-MB-231, 20 μM",decrease in growth rate and heterogeneity simultaneously
same,growth rate and heterogeneity as concentration increases,"[3]; MDA-MB-231, FIG. 22",decrease in growth rate and heterogencity simultaneously
same,growth rate and heterogeneity over time,"[3]; MDA-MB-231, lowest concentrations, FIG. 21 G-H",growth rate decreases over time with little change in heterogeneity
same,DoR QPI,"[3]; MDA-MB-231 cell line, depth of response, QPI",0.8
same,ToR 20 μM,"[3]; MDA-MB-231 cell line, time of response at 20 μM",4.7
same,Hill Slope,"[4]; 24 h CTG, BT-474, Hill fit",0.3445
same,Min Asymptote,[4]; 24 h CTG,0.5659
same,Hill Slope,"[4]; 72 h CTG, BT-474, Hill fit",0.1
same,Min Asymptote,[4]; 72 h CTG,0.06356
same,DoR CTG,"[4]; BT-474 cell line, depth of response, CellTiter-Glo",1.0
same,EC50,"[4]; BT-474, 24 h, 24 h CTG, BT-474, Hill fit, read-out: log10(EC50) (converted)",1830 nM
same,EC50,"[4]; BT-474, 72 h, 72 h CTG, BT-474, Hill fit, read-out: log10(EC50) (converted)",7.66 nM
same,EC50,"[4]; BT-474, BT-474 cell line, CellTiter-Glo, read-out: EC50, CTG",6400 nM
same,Hill Slope,"[5]; 24 h CTG, MDA-MB-231, Hill fit",0.3445
same,Min Asymptote,[5]; 24 h CTG,0.5659
same,Min Asymptote,[5]; 72 h CTG,0.06356 and 0.2911
same,EC50,"[5]; MDA-MB-231, 24 h, 24 h CTG, MDA-MB-231, Hill fit, read-out: log10(EC50) (converted)",1830 nM
same,EC50,"[5]; MDA-MB-231, MDA-MB-231 cell line, CellTiter-Glo, read-out: EC50, CTG",3000 nM
same,DoR CTG,"[5]; MDA-MB-231 cell line, depth of response, CellTiter-Glo",1.0
